Where “and” joins values, the source holds several entries; their conditions need not be identical. Equal values may be shown once.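 48-hour exposure; five concentrations; linearly interpolated endpoints. GI50 = concentration required for 50% inhibition of growth. TGI denotes the concentration required for complete inhibition of growth.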
Tests used:
Assay in all cases: DTP human tumour cell line panel, 48 h
[1] = system: IGROV1 ovarian
[2] = system: MCF7 breast
[3] = system: NCI-H23 lung
[4] = system: NCI-H226 lung
[5] = system: COLO 205 colon
[6] = system: MOLT-4 leukemia
[7] = system: UACC-62 melanoma
[8] = system: NCI-H522 lung
[9] = system: SW-620 colon
[10] = system: HS 578T breast
[11] = system: T-47D breast
[12] = system: HOP-62 NSCLC
[13] = system: HL-60(TB) leukemia
[14] = system: MDA-MB-435
[15] = system: RXF 393 renal
[16] = system: SNB-75 CNS
[17] = system: UACC-257 melanoma
[18] = system: A498 renal
[19] = system: DU-145 prostate
[20] = system: HCT-116 colon
[21] = system: BT-549 breast
[22] = system: SK-MEL-2 melanoma
[23] = system: TK-10 renal
[24] = system: RPMI-8226 leukemia
[25] = system: M14 melanoma
[26] = system: PC-3 prostate
[27] = system: U251 CNS
[28] = system: ACHN renal
[29] = system: NCI-H460 lung
[30] = system: SN12C renal
[31] = system: NCI/ADR-RES ovarian
[32] = system: HOP-92 NSCLC
[33] = system: SK-MEL-28 melanoma
[34] = system: CAKI-1 renal
[35] = system: UO-31 renal
[36] = system: KM12 colon
[37] = system: EKVX NSCLC
[38] = system: LOX IMVI melanoma
[39] = system: SF-539 CNS
[40] = system: OVCAR-5 ovarian
[41] = system: SF-268 CNS
[42] = system: MALME-3M melanoma
[43] = system: 786-0 renal
[44] = system: HT29 colon
[45] = system: K-562 leukemia
[46] = system: CCRF-CEM leukemia
[47] = system: SK-MEL-5 melanoma
[48] = system: SNB-19 CNS
[49] = system: OVCAR-8 ovarian
[50] = system: A549 NSCLC
[51] = system: SR leukemia
[52] = system: MDA-MB-231 breast
[53] = system: SK-OV-3 ovarian
[54] = system: OVCAR-4 ovarian
[55] = system: SF-295 CNS
[56] = system: OVCAR-3 ovarian
[57] = system: HCT-15 colon
[58] = system: HCC-2998 colon

CC1=C(/C=C/C(C)=C/C=C/C(C)=C/C=N/NC(=S)NC(=S)N/N=C/C=C(C)/C=C/C=C(C)/C=C/C2=C(C)CCCC2(C)C)C(C)(C)CCC1
GI50 [1]: 1330 nM and 943 nM
TGI [1]: 6.15 µM and 2.87 µM
GI50 [2]: 2380 nM and 1830 nM
TGI [2]: 12.5 µM and 7.5 µM
GI50 [3]: 1760 nM and 1170 nM
TGI [3]: 7.28 µM and 4.37 µM
GI50 [4]: 1060 nM and 1050 nM
TGI [4]: 2680 nM and 2470 nM
GI50 [5]: 1460 nM and 903 nM
TGI [5]: 5.14 µM and 1.71 µM
GI50 [6]: 1160 nM and 667 nM
TGI [6]: 6.09 µM and 2.45 µM
GI50 [7]: 1480 nM and 890 nM
TGI [7]: 6.09 µM and 2.43 µM
GI50 [8]: 286 nM and 181 nM
TGI [8]: 1070 nM and 795 nM
GI50 [9]: 1440 nM and 860 nM
TGI [9]: 5.42 µM and 1.74 µM
GI50 [10]: 3250 nM and 1910 nM
TGI [10]: 18.7 µM and 9.97 µM
GI50 [11]: 1490 nM and 1090 nM
TGI [11]: 8.43 µM and 4.34 µM
GI50 [12]: 3.84 µM and 2.42 µM
TGI [12]: 11.3 µM and 5 µM
GI50 [13]: 1770 nM and 1000 nM
TGI [13]: 9.22 µM and 4.3 µM
GI50 [14]: 1170 nM and 840 nM
TGI [14]: 4.49 µM and 2.14 µM
GI50 [15]: 935 nM and 847 nM
TGI [15]: 1870 nM and 1580 nM
GI50 [16]: 2060 nM and 1160 nM
TGI [16]: 6.75 µM and 3.28 µM
GI50 [17]: 5.49 µM and 3.64 µM
TGI [17]: 12 µM and 9.82 µM
GI50 [18]: 6.57 µM and 1.36 µM
TGI [18]: 13 µM and 5.83 µM
GI50 [19]: 5.79 µM and 2.55 µM
TGI [19]: 12.5 µM and 8.77 µM
GI50 [20]: 1910 nM and 916 nM
TGI [20]: 8.4 µM and 2.23 µM
GI50 [21]: 4.85 µM and 1.69 µM
TGI [21]: 11.5 µM and 4.77 µM
GI50 [22]: 5.79 µM and 1.82 µM
TGI [22]: 12.5 µM and 6.97 µM
GI50 [23]: 8.6 µM and 2.2 µM
TGI [23]: 16.1 µM and 7.54 µM
GI50 [24]: 3310 nM and 1290 nM
TGI [24]: 23.1 µM and 4.55 µM
GI50 [25]: 1240 nM and 918 nM
TGI [25]: 3730 nM and 1740 nM
GI50 [26]: 3520 nM and 1750 nM
TGI [26]: 12.7 µM and 7.23 µM
GI50 [27]: 2170 nM and 1580 nM
TGI [27]: 7.18 µM and 4.62 µM
GI50 [28]: 5.14 µM and 2.3 µM
TGI [28]: 11.4 µM and 7.9 µM
GI50 [29]: 2350 nM and 1660 nM
TGI [29]: 8.68 µM and 6.36 µM
GI50 [30]: 1560 nM and 1070 nM
TGI [30]: 6.34 µM and 3.32 µM
GI50 [31]: 1760 nM and 1560 nM
TGI [31]: 6.61 µM and 5.46 µM
GI50 [32]: 5.82 µM and 2.33 µM
TGI [32]: 13.4 µM and 6.76 µM
GI50 [33]: 3230 nM and 1850 nM
TGI [33]: 9.12 µM and 6.78 µM
GI50 [34]: 1600 nM and 853 nM
TGI [34]: 7.12 µM and 2.9 µM
GI50 [35]: 1840 nM and 1520 nM
TGI [35]: 8.94 µM and 7.32 µM
GI50 [36]: 2740 nM and 1320 nM
TGI [36]: 9.21 µM and 3.97 µM
GI50 [37]: 3970 nM and 1660 nM
TGI [37]: 11.3 µM and 7.77 µM
GI50 [38]: 1800 nM and 1110 nM
TGI [38]: 6.53 µM and 3.02 µM
GI50 [39]: 1130 nM and 994 nM
TGI [39]: 2850 nM and 2030 nM
GI50 [40]: 3.49 µM and 2.84 µM
TGI [40]: 9.72 µM and 8.04 µM
GI50 [41]: 5.38 µM and 2.47 µM
TGI [41]: 11.9 µM and 9.11 µM
GI50 [42]: 1190 nM and 882 nM
TGI [42]: 5.91 µM and 2.63 µM
GI50 [43]: 1750 nM and 944 nM
TGI [43]: 5.09 µM and 1.85 µM
GI50 [44]: 1910 nM and 1070 nM
TGI [44]: 8.83 µM and 3.69 µM
GI50 [45]: 1960 nM and 1290 nM
TGI [45]: 8.62 µM and 6.63 µM
GI50 [46]: 1710 nM and 686 nM
TGI [46]: 25.8 µM and 4.45 µM
GI50 [47]: 1550 nM and 1560 nM
TGI [47]: 5.03 µM and 6.03 µM
GI50 [48]: 5.25 µM and 4.15 µM
TGI [48]: 11.6 µM and 12 µM
GI50 [49]: 3710 nM and 2060 nM
TGI [49]: 12.3 µM and 7.32 µM
GI50 [50]: 5.4 µM and 3.79 µM
TGI [50]: 12.7 µM and 10.8 µM
GI50 [51]: 1430 nM and 938 nM
TGI [51]: 8.12 µM and 3.79 µM
GI50 [52]: 3.99 µM and 3.67 µM
TGI [52]: 11 µM and 10.6 µM
GI50 [53]: 6.79 µM and 5.51 µM
TGI [53]: 14 µM and 12.3 µM
GI50 [54]: 1740 nM and 1220 nM
TGI [54]: 7.84 µM and 5.4 µM
GI50 [55]: 4.09 µM and 2.1 µM
TGI [55]: 11.7 µM and 9.42 µM
GI50 [56]: 1470 nM and 802 nM
TGI [56]: 4.92 µM and 1.53 µM
GI50 [57]: 2680 nM and 1890 nM
TGI [57]: 9.82 µM and 8.2 µM
GI50 [58]: 6.73 µM and 4.07 µM
TGI [58]: 13.5 µM and 11.8 µM
